Test results taken from PubChem BioAssay AID504598 (NMMLSC, 2011).
Activity calls are given as the source filed them. No rule for the calls is given here.

Experiments:
[1] = molecular target: Bcl-2-like protein 10 (Homo sapiens) (UniProt Q9HD36); experiment: Bfl1 and BclB peptide interaction inhibitors, dose response, biochemical, powder compounds, wildtype and mutant Bfl1, panel (AID 504598); conditions: Bfl1/BclB peptide binding displacement assay, BclB wildtype; for percent span: stronger effect = higher value
[2] = molecular target: Bcl-2-related protein A1 (Homo sapiens) (UniProt Q16548); experiment: as above; conditions: Bfl1/BclB peptide binding displacement assay; for percent span: stronger effect = higher value
[3] = Bfl1 wildtype, deteriorated Bfl1 protein

Chain of Bcl-2-related protein A1 (Homo sapiens) (Q16548 whole entry, looked up): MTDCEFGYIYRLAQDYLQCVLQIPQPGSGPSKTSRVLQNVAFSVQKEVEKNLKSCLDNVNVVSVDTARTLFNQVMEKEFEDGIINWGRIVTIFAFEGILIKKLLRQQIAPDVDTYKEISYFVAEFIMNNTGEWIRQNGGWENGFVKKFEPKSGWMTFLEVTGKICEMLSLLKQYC
Chain of Bcl-2-like protein 10 (Homo sapiens) (Q9HD36 whole entry, looked up): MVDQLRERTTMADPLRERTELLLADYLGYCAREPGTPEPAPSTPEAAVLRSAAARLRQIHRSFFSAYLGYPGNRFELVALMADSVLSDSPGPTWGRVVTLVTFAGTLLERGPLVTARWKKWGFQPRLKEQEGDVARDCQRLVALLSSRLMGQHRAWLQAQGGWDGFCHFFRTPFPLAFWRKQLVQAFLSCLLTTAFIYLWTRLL

Row | Compound | percent span [1] | percent span ([2]; Bfl1 mutant) | percent span ([2]; Bfl1 wildtype) | EC50 [2, 3] [µM] | EC50 [1] | EC50 ([2]; Bfl1 wildtype) | EC50 ([2]; Bfl1 mutant)
1 | CC(C)c1nnc(NC(=O)CCS(=O)(=O)c2nc(-c3cccs3)cc(C(F)(F)F)n2)s1 | inactive | inactive | inactive |  |  |  | 
2 | O=C1NC(=O)C2(Cc3c(nc4ccccn4c3=O)N3CCCCCC32)C(=O)N1Cc1ccccc1 (stereo unspecified) | inactive | inactive | inactive |  |  |  | 
3 | CN1CCN(C2=C(Cl)C(=O)N(c3ccc(Cl)c(Cl)c3)C2=O)CC1 | inactive | inactive | inactive |  |  |  | 
4 | COc1cccc(-c2cc(C(F)(F)F)nc(S(C)(=O)=O)n2)c1 | inactive | inactive | inactive | 0.259 |  |  | 
5 | Cc1ccc(-c2cc(-c3ccc(C)o3)nc(N)c2C#N)cc1 | inactive | inactive | inactive | 1.26 |  |  | 
6 | Cc1ccc(C)n1-c1ccc(Br)cc1C(=O)O | inactive | inactive | inactive |  |  |  | 
7 | CC(=O)c1ccc(NC(=O)c2ccc3nc(-c4ccco4)c(-c4ccco4)nc3c2)cc1 |  | inactive | inactive | 2.12 | inactive |  | 
8 | Cc1cc(-c2cc(-c3ccc(Cl)cc3)nc(N)c2C#N)co1 | inactive | inactive |  | 1.06 |  | > 104 µM (inactive) | 
9 | O=C1C(Cl)=C(N2CCN(c3ccccc3[N+](=O)[O-])CC2)C(=O)c2ccccc21 | inactive | inactive | inactive | 0.42 |  |  | 
10 | CCOC(=O)CCS(=O)(=O)c1nc(-c2ccccc2)cc(C(F)(F)F)n1 | inactive | inactive | inactive |  |  |  | 
11 | CNC1CCC(Br)CC(C(=O)/C=C/c2cccc(OC)c2OC)C1=O (stereo unspecified) | inactive |  |  | 18.4 |  | 9.21 µM | inactive
12 | CNC(CC(=O)c1ccc([N+](=O)[O-])cc1)C(Cl)(Cl)Cl (stereo unspecified) | inactive | inactive | inactive | 0.0314 |  |  | 
13 | O=C(Nc1ccc2nc(-c3ccco3)c(-c3ccco3)nc2c1)N1CCCCCC1 |  | inactive | inactive | 0.344 | 13.6 µM |  | 
14 | Oc1ccc(NCc2ccccc2OCc2ccccc2)cc1 | inactive | inactive | inactive | 0.619 |  |  | 
15 | CCOC(=O)CS(=O)(=O)c1nc(-c2ccccc2)cc(C(F)(F)F)n1 | inactive | inactive | inactive | 0.365 |  |  | 
16 | CCN1C(=O)/C(=C\C=C2/C=CC=CN2CC)SC1=S | inactive | inactive | inactive | 0.483 |  |  | 
17 | Cc1ccc(C=NNC(=O)CSc2nnc(-c3ccc(Cl)cc3)n2-c2ccccc2)o1 |  | inactive | inactive |  | 2.3 µM |  | 
18 | Cc1ccc(-c2cc(-c3ccc(F)cc3)c(C#N)c(N)n2)o1 | inactive | inactive | inactive | 1.53 |  |  | 
19 | Cc1cc(C)nc(/N=C(/N)Nc2cccc(N)c2)n1 | inactive | inactive | inactive |  |  |  | 
20 | CN1CCN(C2=C(Cl)C(=O)N(c3cccc(Cl)c3)C2=O)CC1 | inactive | inactive | inactive |  |  |  | 
21 | Cc1cc(N)ccc1N1CCCC1 |  | inactive | inactive | 1.86 | > 141 µM (inactive) |  | 
